The record followed here is patent US7371777B2, “Cyclic compound and PPAR agonist” (Eisai Co., Ltd., priority 2001, dated 2008).

The term pEC50 denotes the negative decadic logarithm of the EC50, by convention in mol/L. Read a low pEC50 as a high EC50.

pEC50: −log10 of the molar value.

What all share (test): Determination of transcriptional activity (GAL4-PPAR LBD chimera, PLAP reporter, CV-1 cells)
What all share (assay type): cell-based

The target in one experiment is T1, PPARβ (Homo sapiens, UniProt Q03181).
T1 construct: 138-440 (NUC-1); expressed in transfected cells; host or cells: CV-1 (ATCC CCL-70)
T1 sequence (Q03181 138-440): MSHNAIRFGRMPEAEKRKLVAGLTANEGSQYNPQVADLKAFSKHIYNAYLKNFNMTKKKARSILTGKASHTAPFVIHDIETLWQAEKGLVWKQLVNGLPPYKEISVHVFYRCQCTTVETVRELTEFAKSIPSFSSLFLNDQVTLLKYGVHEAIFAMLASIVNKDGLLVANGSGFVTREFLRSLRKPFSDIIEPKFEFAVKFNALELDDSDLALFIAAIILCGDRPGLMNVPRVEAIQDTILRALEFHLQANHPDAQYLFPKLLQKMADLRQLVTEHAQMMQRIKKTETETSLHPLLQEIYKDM
Particulars: GAL4-human NUC-1 LBD (138-440) chimera, PLAP activity 24 hours after addition of compound. The source says:
(§1) Determination of Transcriptional Activity
(§2) (1) Test Method: A GAL4-PPAR LBD chimera expression vector was constructed by ligating human PPAR167-468 (PPARa), 138-440 (NUC-1) and 174-475 (PPARg) amino acid regions (LBD: Ligand Binding Domain) to a yeast transcriptional factor GAL4 1-147 amino acid region. As the reporter gene, PLAP (Placental Alkaline Phosphatase) was used, and this was ligated downstream of a TK promoter containing a 5-copy GAL4 DNA binding element to construct a vector. As host cells, CV-1 (ATCC CCL-70) were used. That is, CV-1 cells were spread at a density of 5×10^5 cells on a 35-mm dish and cultured in 10% FCS/DMEM for 24 hours, and using FuGENE 6 transfection reagent, the cells were co-transfected with the GAL4-PPAR LBD expression vector and GAL4 DBD-TK-PLAP expression vector. Twentyfour hours after this transfection, the cells were spread again on a 96-well plate at a density of 1×10^4/well and further cultured for 24 hours. After 24 hours, the medium was exchanged with DMEM containing 10% FCS, which was previously treated at 65° C. for inactivating intrinsic alkaline phosphatase, and a test compound was added at an arbitrary concentration. The transcriptional activity was determined in terms of PLAP activity secreted 24 hours after addition of the compound, to calculate EC50. The PLAP activity was determined after adding […] and incubating the mixture at room temperature for 1 hour.

Another experiment deals with T2, PPARγ (Homo sapiens, UniProt P37231).
T2 construct: 174-475 (PPARg); expressed in transfected cells; host or cells: CV-1 (ATCC CCL-70)
T2 sequence (P37231 204-505): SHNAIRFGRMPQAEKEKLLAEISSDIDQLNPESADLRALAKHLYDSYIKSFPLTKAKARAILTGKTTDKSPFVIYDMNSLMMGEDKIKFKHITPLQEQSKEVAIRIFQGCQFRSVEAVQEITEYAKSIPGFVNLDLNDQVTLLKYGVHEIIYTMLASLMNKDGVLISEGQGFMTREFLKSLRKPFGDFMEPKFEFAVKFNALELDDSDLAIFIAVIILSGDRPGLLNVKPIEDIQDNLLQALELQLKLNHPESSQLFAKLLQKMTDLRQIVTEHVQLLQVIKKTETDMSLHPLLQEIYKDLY
As to conditions: GAL4-human PPARγ LBD (174-475) chimera, PLAP activity 24 hours after addition of compound.
Text: as §1, §2

The target of another experiment is T3, PPARα (Homo sapiens, UniProt Q07869).
T3 construct: human PPAR167-468 (PPARa); expressed in transfected cells; host or cells: CV-1 (ATCC CCL-70)
T3 sequence (Q07869 167-468): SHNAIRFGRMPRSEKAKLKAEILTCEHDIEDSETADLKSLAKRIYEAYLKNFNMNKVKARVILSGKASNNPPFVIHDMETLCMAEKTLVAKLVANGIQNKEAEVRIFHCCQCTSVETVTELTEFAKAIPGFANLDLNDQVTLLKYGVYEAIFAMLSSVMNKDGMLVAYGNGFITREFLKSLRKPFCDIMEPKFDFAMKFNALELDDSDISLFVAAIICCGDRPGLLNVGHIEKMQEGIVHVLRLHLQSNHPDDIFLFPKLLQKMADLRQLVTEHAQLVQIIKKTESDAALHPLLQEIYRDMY
As to conditions: GAL4-human PPARα LBD (167-468) chimera, PLAP activity 24 hours after addition of compound.
Text: as §1, §2

For `CCCOc1ccc(C(=O)NCc2cc(CC3(C(=O)O)CCCO3)ccc2OC)c(Cl)c1` (stereo not drawn) [Ex. 1, 2-(3-{[(2-Chloro-4-propoxybenzoyl)amino]methyl}-4-methoxybenzyl)tetrahydro-2-furancarboxylic acid], the negative-log EC50 (pEC50) is 6.27 on PPARβ, 7.25 on PPARγ and 7.55 at PPARα.
Consider `CCCOc1ccc(C(=O)NCc2cc(CC3(C(=O)O)CCCO3)ccc2OCC)c(Cl)c1` (stereo not drawn) [Ex. 73, 2-(3-{[(2-Chloro-4-propoxybenzoyl)amino]methyl}-4-ethoxybenzyl)tetrahydro-2-furancarboxylic acid], for which the pEC50 on PPARβ was 7.42; at PPARγ, 8.30; at PPARα, 7.89.
The corresponding values for `COc1ccc(CC2(C(=O)O)CCCO2)cc1CNC(=O)c1ccc(C2CCCCC2)cc1Cl` (stereo not drawn) [Ex. 6, 2-(3-{[(2-Chloro-4-cyclohexylbenzoyl)amino]methyl}-4-methoxybenzyl)tetrahydro-2-furancarboxylic acid] are 5.92, 7.11 and 7.96.
The matching figures for `CCOc1ccc(C(=O)NCc2cc(CC3(C(=O)O)CCCO3)ccc2OCC)c(Cl)c1` (stereo not drawn) [Ex. 72, 2-(3-{[(2-Chloro-4-ethoxybenzoyl)amino]methyl}-4-ethoxybenzyl)tetrahydro-2-furancarboxylic acid]: 6.63, 7.40 and 7.04.
The corresponding values for `CCCOc1ccc(C(=O)NCc2cc(CC3(C(=O)O)C=CCO3)ccc2OC)c(Cl)c1` (stereo not drawn) [Ex. 49, 2-(3-{[(2-Chloro-4-propoxybenzoyl)amino]methyl}-4-methoxybenzyl)-2,5-dihydro-2-furancarboxylic acid] are 6.11, 7.43 and 7.27.
For `COc1ccc(CC2(C(=O)O)CCCO2)cc1CNC(=O)c1ccc(OC2CCCC2)cc1Cl` (stereo not drawn) [Ex. 5, 2-(3-{[(2-Chloro-4-cyclopentyloxybenzoyl)amino]methyl}-4-methoxybenzyl)tetrahydro-2-furancarboxylic acid], the pEC50 is 5.88 on PPARβ, 7.40 at PPARγ and 7.82 at PPARα.
